The test concerns MV-4-11 cells. Briefly: Gene expression microarray analysis (Affymetrix PrimeView) and GSEA. It counts as cell-based, human. On the set-up: RFU PODN (11730768_x_at) / Fold change /veh PODN (11730768_x_at) / RFU LINC00158 (11744669_a_at) / Fold change /veh LINC00158 (11744669_a_at) / RFU DUSP10 (11751237_a_at) / Fold change /veh DUSP10 (11751237_a_at) / RFU ID3 (11757404_x_at) / Fold change /veh ID3 (11757404_x_at) / RFU PLEKHG5 (11737974_s_at) / Fold change /veh PLEKHG5 (11737974_s_at) / RFU LRRC4B (11730491_at) / Fold change /veh LRRC4B (11730491_at) / RFU GIMAP4 (11747438_a_at) / Fold change /veh GIMAP4 (11747438_a_at) / RFU KRT8 (11758183_x_at) / Fold change /veh KRT8 (11758183_x_at) / RFU CNN1 (11734310_a_at) / Fold change /veh CNN1 (11734310_a_at) / RFU VPS37D (11726825_at) / Fold change /veh VPS37D (11726825_at) / RFU C10orf10 (11716522_x_at) / Fold change /veh C10orf10 (11716522_x_at) / RFU KIR2DL2 /// KIR2DL4 /// KIR2DL5A /// KIR2DL5B /// KIR2DS1 /// KIR2DS2 /// KIR2DS3 /// KIR2DS4 /// KIR3DL3 /// KIR3DL3 /// KIR3DS1 (11738374_at) / Fold change /veh KIR2DL2 /// KIR2DL4 /// KIR2DL5A /// KIR2DL5B /// KIR2DS1 /// KIR2DS2 /// KIR2DS3 /// KIR2DS4 /// KIR3DL3 /// KIR3DL3 /// KIR3DS1 (11738374_at) / RFU C1QL1 (11718748_at) / Fold change /veh C1QL1 (11718748_at) / RFU TMPRSS4 (11747572_a_at) / Fold change /veh TMPRSS4 (11747572_a_at) / RFU HAMP (11756126_x_at) / Fold change /veh HAMP (11756126_x_at) / RFU RNFT2 (11725882_a_at) / Fold change /veh RNFT2 (11725882_a_at) / RFU NR4A2 (11747474_a_at) / Fold change /veh NR4A2 (11747474_a_at) / RFU ABCC12 (11746883_a_at) / Fold change /veh ABCC12 (11746883_a_at) / RFU TMEM136 (11760407_x_at) / Fold change /veh TMEM136 (11760407_x_at) / RFU CLDN22 /// WWC2 (11732394_at) / Fold change /veh CLDN22 /// WWC2 (11732394_at) / RFU HLA-DPB1 (11760878_x_at) / Fold change /veh HLA-DPB1 (11760878_x_at) / RFU SPINT1 (11716480_a_at) / Fold change /veh SPINT1 (11716480_a_at) / RFU GAP43 (11754022_s_at) / Fold change /veh GAP43 (11754022_s_at) / RFU A4GNT (11735810_at) / Fold change /veh A4GNT (11735810_at) / RFU PRB3 (11715151_x_at) / Fold change /veh PRB3 (11715151_x_at) / RFU TUBB4B (11761932_at) / Fold change /veh TUBB4B (11761932_at) / RFU CAPN14 (11732068_a_at) / Fold change /veh CAPN14 (11732068_a_at) / RFU TMCC2 (11721928_a_at) / Fold change /veh TMCC2 (11721928_a_at) / RFU IRGQ (11745062_a_at) / Fold change /veh IRGQ (11745062_a_at) / RFU FAM174B (11720279_a_at) / Fold change /veh FAM174B (11720279_a_at) / RFU TMPRSS4 (11748680_a_at) / Fold change /veh TMPRSS4 (11748680_a_at) / RFU FAM212B (11763350_a_at) / Fold change /veh FAM212B (11763350_a_at) / RFU PLEKHG5 (11743358_a_at) / Fold change /veh PLEKHG5 (11743358_a_at) / RFU ZSCAN30 (11745921_a_at) / Fold change /veh ZSCAN30 (11745921_a_at) / RFU CMKLR1 (11741424_a_at) / Fold change /veh CMKLR1 (11741424_a_at) / RFU LOC101060620 /// MAPK8IP1 (11723275_at) / Fold change /veh LOC101060620 /// MAPK8IP1 (11723275_at) / RFU SPTSSB (11747773_x_at) / Fold change /veh SPTSSB (11747773_x_at) / RFU PRSS12 (11739890_at) / Fold change /veh PRSS12 (11739890_at) / RFU BIN1 (11741810_x_at) / Fold change /veh BIN1 (11741810_x_at) / RFU WNT11 (11732464_a_at) / Fold change /veh WNT11 (11732464_a_at) / RFU C10orf10 (11716521_a_at) / Fold change /veh C10orf10 (11716521_a_at) / RFU C5orf56 (11738089_at) / Fold change /veh C5orf56 (11738089_at) / RFU CYB561 (11721691_x_at) / Fold change /veh CYB561 (11721691_x_at) / RFU ANKRD19P (11752326_a_at) / Fold change /veh ANKRD19P (11752326_a_at) / RFU OR2T12 /// OR2T33 /// OR2T8 (11738714_s_at) / Fold change /veh OR2T12 /// OR2T33 /// OR2T8 (11738714_s_at) / RFU VCAN (11748164_a_at) / Fold change /veh VCAN (11748164_a_at) / RFU JSRP1 (11732532_at) / Fold change /veh JSRP1 (11732532_at) / RFU KRTAP10-11 (11738290_x_at) / Fold change /veh KRTAP10-11 (11738290_x_at) / RFU MYO3A (11730013_a_at) / Fold change /veh MYO3A (11730013_a_at) / RFU EBF3 (11725865_a_at) / Fold change /veh EBF3 (11725865_a_at) / RFU CAMK2N1 (11719241_x_at) / Fold change /veh CAMK2N1 (11719241_x_at) / RFU C5orf56 (11738088_a_at) / Fold change /veh C5orf56 (11738088_a_at) / RFU OLFML3 (11715873_a_at) / Fold change /veh OLFML3 (11715873_a_at) / RFU LOC100653217 /// NTM (11731650_a_at) / Fold change /veh LOC100653217 /// NTM (11731650_a_at) / RFU MAPK11 (11762145_a_at) / Fold change /veh MAPK11 (11762145_a_at) / RFU FIZ1 (11724087_x_at) / Fold change /veh FIZ1 (11724087_x_at) / RFU OASL (11726364_x_at) / Fold change /veh OASL (11726364_x_at) / RFU SOX15 (11748057_x_at) / Fold change /veh SOX15 (11748057_x_at) / RFU CD79A (11719716_a_at) / Fold change /veh CD79A (11719716_a_at) / RFU HIST1H1D (11736915_at) / Fold change /veh HIST1H1D (11736915_at) / RFU CASKIN2 (11723855_a_at) / Fold change /veh CASKIN2 (11723855_a_at) / RFU LOC730098 (11760151_x_at) / Fold change /veh LOC730098 (11760151_x_at) / RFU OR4N2 (11742367_at) / Fold change /veh OR4N2 (11742367_at) / RFU PRRT2 (11749266_a_at) / Fold change /veh PRRT2 (11749266_a_at) / RFU SNX32 (11753110_a_at) / Fold change /veh SNX32 (11753110_a_at) / RFU CDHR5 (11726645_a_at) / Fold change /veh CDHR5 (11726645_a_at) / RFU RCAN1 (11760418_a_at) / Fold change /veh RCAN1 (11760418_a_at) / RFU FAM167A (11723789_a_at) / Fold change /veh FAM167A (11723789_a_at) / RFU FAM26E (11764081_at) / Fold change /veh FAM26E (11764081_at) / RFU ISYNA1 (11749810_s_at) / Fold change /veh ISYNA1 (11749810_s_at) / RFU ACY1 (11761880_at) / Fold change /veh ACY1 (11761880_at) / RFU 11764098_at / Fold change /veh 11764098_at / RFU SAMD14 (11745864_x_at) / Fold change /veh SAMD14 (11745864_x_at) / RFU NPB (11741838_a_at) / Fold change /veh NPB (11741838_a_at) / RFU TMPRSS6 (11731388_a_at) / Fold change /veh TMPRSS6 (11731388_a_at) / RFU KRTAP10-2 (11738614_at) / Fold change /veh KRTAP10-2 (11738614_at) / RFU ARHGAP8 /// PRR5-ARHGAP8 (11727945_x_at) / Fold change /veh ARHGAP8 /// PRR5-ARHGAP8 (11727945_x_at) / RFU KRTAP5-7 /// NADSYN1 (11734609_at) / Fold change /veh KRTAP5-7 /// NADSYN1 (11734609_at) / RFU RASL12 (11751679_a_at) / Fold change /veh RASL12 (11751679_a_at) / RFU CDKN2B (11736163_a_at) / Fold change /veh CDKN2B (11736163_a_at) / RFU PRF1 (11729649_at) / Fold change /veh PRF1 (11729649_at) / RFU, ZNF638 /// ZNF638-IT1 / Fold change vs veh, ZNF638 /// ZNF638-IT1 / RFU, PANK3 / Fold change vs veh, PANK3 / RFU, SH3YL1 / Fold change vs veh, SH3YL1 / RFU, ZEB2 / Fold change vs veh, ZEB2 / RFU, NRIP1 / Fold change vs veh, NRIP1 / RFU, PTTG1IP / Fold change vs veh, PTTG1IP / RFU, CAPN2 / Fold change vs veh, CAPN2 / RFU, MED14 / Fold change vs veh, MED14 / RFU, SNORA58 / Fold change vs veh, SNORA58 / RFU, C1orf63 / Fold change vs veh, C1orf63 / RFU, LRRFIP1 / Fold change vs veh, LRRFIP1 / RFU, NDUFAF7 / Fold change vs veh, NDUFAF7 / RFU, SLC12A2 / Fold change vs veh, SLC12A2 / RFU, IBTK / Fold change vs veh, IBTK / RFU, ESF1 / Fold change vs veh, ESF1 / Fold change vs veh, TMEM50B / RFU, TAOK1 / Fold change vs veh, TAOK1 / RFU, ACBD3 / Fold change vs veh, ACBD3 / RFU, TMA16 / Fold change vs veh, TMA16 / RFU, RWDD3 / Fold change vs veh, RWDD3 / RFU, BCAT1 / Fold change vs veh, BCAT1 / RFU, EDEM3 / Fold change vs veh, EDEM3 / RFU, TMEM33 / Fold change vs veh, TMEM33 / RFU, WDR75 / Fold change vs veh, WDR75 / RFU, AHCTF1 / Fold change vs veh, AHCTF1 / RFU, TFRC / Fold change vs veh, TFRC / RFU, ZDHHC17 / Fold change vs veh, ZDHHC17 / RFU, NOM1 / Fold change vs veh, NOM1 / RFU, ARL8B / Fold change vs veh, ARL8B / RFU, ZBTB11 / Fold change vs veh, ZBTB11 / RFU, TAMM41 / Fold change vs veh, TAMM41 / RFU, KIAA1704 /// LOC100996395 / Fold change vs veh, KIAA1704 /// LOC100996395 / RFU, ING1 / Fold change vs veh, ING1 / RFU, TRMT61B / Fold change vs veh, TRMT61B / RFU, FUBP3 / Fold change vs veh, FUBP3 / RFU, TP53 / Fold change vs veh, TP53 / RFU, TNKS2 / Fold change vs veh, TNKS2 / RFU, ZFP14 / Fold change vs veh, ZFP14 / RFU, ACTR2 / Fold change vs veh, ACTR2 / RFU, PPP3R1 / Fold change vs veh, PPP3R1 / RFU, PIK3R1 / Fold change vs veh, PIK3R1 / RFU, HNRNPA1 / Fold change vs veh, HNRNPA1 / RFU, RNF170 / Fold change vs veh, RNF170 / RFU, ZNF28 / Fold change vs veh, ZNF28 / RFU, RNGTT / Fold change vs veh, RNGTT / RFU, OGT / Fold change vs veh, OGT / RFU, BRD1 / Fold change vs veh, BRD1 / RFU, MARS / Fold change vs veh, MARS / RFU, ZNF655 / Fold change vs veh, ZNF655 / RFU, FAHD1 / Fold change vs veh, FAHD1 / RFU, BDP1 / Fold change vs veh, BDP1 / RFU, LRRCC1 / Fold change vs veh, LRRCC1 / RFU, ARID1A / Fold change vs veh, ARID1A / RFU, ZNF146 / Fold change vs veh, ZNF146 / RFU, ZNF330 / Fold change vs veh, ZNF330 / RFU, GPN3 / Fold change vs veh, GPN3 / RFU, C9orf123 / Fold change vs veh, C9orf123 / RFU, N4BP2L2 / Fold change vs veh, N4BP2L2 / RFU, ARFIP1 / Fold change vs veh, ARFIP1 / RFU, FAM179B / Fold change vs veh, FAM179B / RFU, BCL10 / Fold change vs veh, BCL10 / RFU, UHRF1BP1L / Fold change vs veh, UHRF1BP1L / RFU, BET1 / Fold change vs veh, BET1 / RFU, CNOT2 / Fold change vs veh, CNOT2 / RFU, ZNF268 / Fold change vs veh, ZNF268 / Fold change vs veh, ZNF507 / RFU, DGCR2 / Fold change vs veh, DGCR2 / RFU, WDSUB1 / Fold change vs veh, WDSUB1 / Fold change vs veh, HSP90B1 /// MIR3652 / RFU, ADSS / Fold change vs veh, ADSS / RFU, GK / Fold change vs veh, GK / RFU, ZNF148 / Fold change vs veh, ZNF148 / RFU, TAF9 / Fold change vs veh, TAF9 / RFU, SLC1A5 / Fold change vs veh, SLC1A5 / RFU, SLMO2 / Fold change vs veh, SLMO2 / RFU, ABCC4 / Fold change vs veh, ABCC4 / RFU, LOC101060439 /// RAP1B / Fold change vs veh, LOC101060439 /// RAP1B / RFU, RFX7 / Fold change vs veh, RFX7 / RFU, GTPBP10 / Fold change vs veh, GTPBP10 / RFU, CNEP1R1 / Fold change vs veh, CNEP1R1 / RFU, BIVM-ERCC5 /// ERCC5 / Fold change vs veh, BIVM-ERCC5 /// ERCC5 / RFU, ILF3 / Fold change vs veh, ILF3 / RFU 11762660_at / Fold change /veh 11762660_at / RFU VCAN (11757783_s_at) / Fold change /veh VCAN (11757783_s_at) / RFU DDX43 (11728927_at) / Fold change /veh DDX43 (11728927_at) / RFU KRT8 (11758188_x_at) / Fold change /veh KRT8 (11758188_x_at) / RFU NKD1 (11759106_at) / Fold change /veh NKD1 (11759106_at) / RFU SRD5A1 (11742802_a_at) / Fold change /veh SRD5A1 (11742802_a_at) / RFU TPSAB1 /// TPSB2 (11721975_s_at) / Fold change /veh TPSAB1 /// TPSB2 (11721975_s_at) / RFU GSTM3 (11746129_a_at) / Fold change /veh GSTM3 (11746129_a_at) / RFU IL23R (11737362_x_at) / Fold change /veh IL23R (11737362_x_at) / RFU TMEM51 (11727254_a_at) / Fold change /veh TMEM51 (11727254_a_at) / RFU PIWIL2 (11732686_x_at) / Fold change /veh PIWIL2 (11732686_x_at) / RFU ORM1 (11744905_x_at) / Fold change /veh ORM1 (11744905_x_at) / RFU CCDC152 (11743942_at) / Fold change /veh CCDC152 (11743942_at) / RFU ECM1 (11717891_a_at) / Fold change /veh ECM1 (11717891_a_at) / RFU IL23R (11748794_a_at) / Fold change /veh IL23R (11748794_a_at) / RFU TNFAIP8L3 (11732012_x_at) / Fold change /veh TNFAIP8L3 (11732012_x_at) / RFU MBOAT4 (11741988_at) / Fold change /veh MBOAT4 (11741988_at) / RFU 11764193_at / Fold change /veh 11764193_at / RFU TMEM53 (11763286_at) / Fold change /veh TMEM53 (11763286_at) / RFU MAGEB2 (11727129_at) / Fold change /veh MAGEB2 (11727129_at) / RFU TMEM200A (11744735_a_at) / Fold change /veh TMEM200A (11744735_a_at) / RFU CCDC152 (11751479_a_at) / Fold change /veh CCDC152 (11751479_a_at) / RFU FAM211A (11726209_a_at) / Fold change /veh FAM211A (11726209_a_at) / RFU RGS16 (11746705_a_at) / Fold change /veh RGS16 (11746705_a_at) / RFU VCAN (11755009_s_at) / Fold change /veh VCAN (11755009_s_at) / RFU RHOB (11743442_s_at) / Fold change /veh RHOB (11743442_s_at) / RFU RGS16 (11720943_a_at) / Fold change /veh RGS16 (11720943_a_at) / RFU RGS16 (11720944_at) / Fold change /veh RGS16 (11720944_at) / RFU, VPS4B / Fold change vs veh, VPS4B / RFU, CREB1 / Fold change vs veh, CREB1 / RFU, DNAJC13 / Fold change vs veh, DNAJC13 / RFU, GNAQ / Fold change vs veh, GNAQ / RFU, CDK5R1 / Fold change vs veh, CDK5R1 / RFU, ZRANB3 / Fold change vs veh, ZRANB3 / RFU, CUL4A / Fold change vs veh, CUL4A / RFU, CCNY / Fold change vs veh, CCNY / RFU, UFL1 / Fold change vs veh, UFL1 / RFU, COG3 / Fold change vs veh, COG3 / RFU, DIAPH2 / Fold change vs veh, DIAPH2 / RFU, SKA2 / Fold change vs veh, SKA2 / RFU, AFF3 / Fold change vs veh, AFF3 / RFU, LMF1 / Fold change vs veh, LMF1 / RFU, IPO11 / Fold change vs veh, IPO11 / RFU, DFFB / Fold change vs veh, DFFB / RFU, FOXP1 / Fold change vs veh, FOXP1 / RFU, CARD8 / Fold change vs veh, CARD8 / RFU, STRN3 / Fold change vs veh, STRN3 / RFU, ADK / Fold change vs veh, ADK / RFU, RASSF2 / Fold change vs veh, RASSF2 / RFU, WIPF1 / Fold change vs veh, WIPF1 / RFU, LARP1B / Fold change vs veh, LARP1B / RFU, RASA1 / Fold change vs veh, RASA1 / RFU, RB1 / Fold change vs veh, RB1 / RFU, PPFIA1 / Fold change vs veh, PPFIA1 / RFU, MAT2A / Fold change vs veh, MAT2A / RFU, CCT5 / Fold change vs veh, CCT5 / RFU, WDR92 / Fold change vs veh, WDR92 / RFU, CUX1 / Fold change vs veh, CUX1 / RFU, TTC7A / Fold change vs veh, TTC7A / RFU, TMEM135 / Fold change vs veh, TMEM135 / RFU, DEPTOR / Fold change vs veh, DEPTOR / RFU, CPM / Fold change vs veh, CPM / RFU, DNAJB6 / Fold change vs veh, DNAJB6 / RFU, CACNA2D3 / Fold change vs veh, CACNA2D3 / RFU, DTX4 / Fold change vs veh, DTX4 / RFU, TFCP2 / Fold change vs veh, TFCP2 / RFU, GMCL1 /// GMCL1P1 / Fold change vs veh, GMCL1 /// GMCL1P1 / RFU, AEBP2 / Fold change vs veh, AEBP2 / RFU, SNHG1 /// SNORD22 /// SNORD25 /// SNORD26 /// SNORD27 /// SNORD28 /// SNORD29 /// SNORD31 / Fold change vs veh, SNHG1 /// SNORD22 /// SNORD25 /// SNORD26 /// SNORD27 /// SNORD28 /// SNORD29 /// SNORD31 / Fold change (Aza/veh), C12orf56 (ProbeSet 11735607_a_at) / Fold change (ACY-1035/veh), C12orf56 (ProbeSet 11735607_a_at) / Fold change (Aza/veh), FGFR1OP (ProbeSet 11751329_s_at) / Fold change (ACY-1035/veh), FGFR1OP (ProbeSet 11751329_s_at) / Fold change (Aza/veh), VPS36 (ProbeSet 11739960_a_at) / Fold change (ACY-1035/veh), VPS36 (ProbeSet 11739960_a_at) / RFU SYPL1 (11715823_x_at) / Fold change /veh SYPL1 (11715823_x_at) / RFU IGFBP7 (11715501_s_at) / Fold change /veh IGFBP7 (11715501_s_at) / RFU REEP3 (11722064_at) / Fold change /veh REEP3 (11722064_at) / RFU IGLL1 (11728026_x_at) / Fold change /veh IGLL1 (11728026_x_at): dose or concentration left out as unconfirmed. As to conditions: MV-4-11 cells, 48 hours.

As to `Nc1ncn([C@@H]2O[C@H](CO)[C@@H](O)[C@H]2O)c(=O)n1` [azacitidine], the “RFU GSTM3 (11746129_a_at)” value is recorded as 15.07 RFU.
